Structures are written as SMILES.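 Briefly, cells in 96-well plates were exposed to five compound concentrations for 48 h, and endpoints were estimated by linear interpolation. GI50 is the concentration that inhibits growth by half.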 Activity calls are given as the source filed them. No stated cut-off is given here; in the data, active = GI50 up to about 1.1 µM and inactive = higher.

Consider eleven compounds from ChEMBL document CHEMBL1201862, “PubChem BioAssay data set” (2004).

Among the test systems are A498; A549; ACHN; EKVX; HCC 2998; HCT-15; HOP-92; Hs-578T; LOX IMVI; MDA-MB-435; NCI-H23; OVCAR-4; OVCAR-5; SF-295; SK-MEL-2; SK-MEL-5; SNB-75; TK-10; U-251.
Common to all, as to experiment: growth of human tumour cells (NCI), 48 h

Consider `COC(=O)C1(C(=O)OC)Cc2ccc(OC)cc2C2=C1C(=O)c1ccccc1C2=O`, for which the GI50 was 18.3 µM (inactive) in the experiment with A498; 14.9 µM (inactive) in the experiment with A549; 5.74 µM (inactive) with ACHN; 4.46 µM (inactive) in the experiment with EKVX; 19.5 µM (inactive) in the experiment on HCC 2998; 10.7 µM in the experiment with HCT-15. The GI50 is 2.69 µM (inactive) with HOP-92; 8.93 µM (inactive) with Hs-578T; 2.17 µM (inactive) with LOX IMVI; 1.97 µM (inactive) in the experiment with MDA-MB-435; 6.62 µM (inactive) with NCI-H23; 1.77 µM (inactive) in the experiment on OVCAR-4. Further, the GI50 is 6.01 µM (inactive) in the experiment with OVCAR-5; 3.77 µM (inactive) with SF-295; 5.7 µM (inactive) in the experiment with SK-MEL-2; 7.4 µM (inactive) in the experiment with SK-MEL-5; 17.7 µM (inactive) in the experiment with SNB-75; 18.4 µM (inactive) in the experiment on TK-10. Also, in the experiment with U-251, the GI50 was 5.56 µM (inactive).

`CC1=NN(c2nc(N)nc(/C(C#N)=C\c3ccc(-c4ccc([N+](=O)[O-])cc4)o3)n2)C(C)(C)C1`: the GI50 was > 100 µM (inactive) in the experiment on A498; > 100 µM (inactive) in the experiment on A549; > 100 µM (inactive) in the experiment with ACHN; > 100 µM (inactive) with EKVX; > 100 µM (inactive) with HCC 2998; greater than 100 µM in the experiment on HCT-15. The GI50 in the experiment on HOP-92 was > 100 µM (inactive); in the experiment on Hs-578T it was 62.2 µM (inactive); with LOX IMVI, > 100 µM (inactive); with MDA-MB-435, > 100 µM (inactive); in the experiment on NCI-H23 it was > 100 µM (inactive); in the experiment with OVCAR-4, > 100 µM (inactive). For the same compound, the GI50 with OVCAR-5 was > 100 µM (inactive); with SF-295, > 100 µM (inactive); with SK-MEL-2, > 100 µM (inactive); in the experiment on SK-MEL-5, > 100 µM (inactive); in the experiment with SNB-75 it was 14.2 µM (inactive); in the experiment with TK-10, > 100 µM (inactive). In the experiment on U-251, the GI50 is 39.5 µM (inactive).

Regarding `COc1cccc(C(=O)C(O)c2cccc(OC)c2OC)c1OC` (centres undefined), the GI50 in the experiment with A498 is > 100 µM (inactive); in the experiment with A549 it was > 100 µM (inactive); with ACHN, > 100 µM (inactive); with EKVX, > 100 µM (inactive); with HCC 2998 it was > 100 µM (inactive); in the experiment with HCT-15 it was greater than 100 µM. In addition, the GI50 in the experiment on HOP-92, in the experiment with Hs-578T, in the experiment with LOX IMVI, in the experiment with MDA-MB-435, in the experiment with NCI-H23 and with OVCAR-4 was > 100 µM (inactive) in each case. Further, the GI50 with OVCAR-5, with SF-295, in the experiment on SK-MEL-2, with SK-MEL-5, in the experiment on SNB-75 and in the experiment on TK-10 was > 100 µM (inactive) in each case. Further, the GI50 with U-251 was > 100 µM (inactive).

For the compound `Nc1nc(F)nc2c1ncn2C1OC(CO)C(O)C1O` (centres undefined), the GI50 with A498 was > 60.3 µM (inactive); in the experiment with A549, 43 µM (inactive); in the experiment on ACHN it was 34 µM (inactive); with EKVX, > 100 µM (inactive); in the experiment on HCC 2998 it was 49.3 µM (inactive); in the experiment with HCT-15, greater than 75 µM. Besides, the GI50 in the experiment on HOP-92 is 8.79 µM (inactive); with Hs-578T, > 100 µM (inactive); with LOX IMVI, 48.2 µM (inactive); in the experiment with MDA-MB-435, 35.7 µM (inactive); in the experiment on NCI-H23 it was 13.3 µM (inactive); with OVCAR-4 it was > 100 µM (inactive). Also, the GI50 with OVCAR-5 is > 100 µM (inactive); in the experiment on SF-295, > 100 µM (inactive); in the experiment on SK-MEL-2, > 100 µM (inactive); in the experiment on SK-MEL-5, 55.5 µM (inactive); in the experiment on SNB-75, > 100 µM (inactive); in the experiment on TK-10, > 100 µM (inactive). Moreover, the GI50 with U-251 was > 81.5 µM (inactive).

`O=C(NCCc1ccc(F)cc1)c1cc(/C=C/c2cc(O)ccc2O)ccc1O`: the GI50 in the experiment with A498 was 4.06 µM (inactive); in the experiment on A549, 11.1 µM (inactive); in the experiment with ACHN it was 2.01 µM (inactive); in the experiment on EKVX it was 2.42 µM (inactive); in the experiment with HCC 2998, 7.23 µM (inactive); in the experiment on HCT-15, 2.26 µM. Further, the GI50 in the experiment on HOP-92 is 1.85 µM (inactive); with Hs-578T, 4.26 µM (inactive); in the experiment on LOX IMVI it was 3.38 µM (inactive); in the experiment with MDA-MB-435 it was 3.78 µM (inactive); in the experiment on NCI-H23, 3.28 µM (inactive); in the experiment on OVCAR-4, 2.67 µM (inactive). Also, the GI50 with OVCAR-5 was 6.64 µM (inactive); in the experiment with SF-295 it was 16.1 µM (inactive); with SK-MEL-2 it was 2.67 µM (inactive); with SK-MEL-5, 2.4 µM (inactive); in the experiment with SNB-75, 4.57 µM (inactive); in the experiment with TK-10, 2.61 µM (inactive). The GI50 in the experiment with U-251 is 2.1 µM (inactive).

With `CN(C)CCNc1ccc2nnn3c4ccc(Cl)cc4c(=O)c1c23`, the GI50 was 2.8 µM (inactive) with A498; 2.72 µM (inactive) with A549; 1.55 µM (inactive) with ACHN; 4.45 µM (inactive) with EKVX; 8.67 µM (inactive) with HCC 2998; 2.16 µM in the experiment on HCT-15. The GI50 with HOP-92 was 3.69 µM (inactive); in the experiment with Hs-578T, 3.3 µM (inactive); in the experiment with LOX IMVI it was 1.6 µM (inactive); with MDA-MB-435, 4.65 µM (inactive); in the experiment on NCI-H23, 5.09 µM (inactive); in the experiment on OVCAR-4 it was 2.94 µM (inactive). Also, the GI50 in the experiment on OVCAR-5 is 4.14 µM (inactive); with SF-295, 2.85 µM (inactive); in the experiment with SK-MEL-2 it was 6.19 µM (inactive); in the experiment with SK-MEL-5, 2.94 µM (inactive); in the experiment on SNB-75 it was 3.01 µM (inactive); in the experiment with TK-10, 5 µM (inactive). In addition, the GI50 in the experiment on U-251 is 1.33 µM (inactive).

In the case of `CO[C@H]1O[C@@H]2CO[C@@H](c3ccccc3)O[C@H]2C[C@]12CCC/C=C\CO2`, the GI50 in the experiment with A498 was 14 µM (inactive); in the experiment with A549, 33.6 µM (inactive); with ACHN it was 15.5 µM (inactive); in the experiment with EKVX, 11.6 µM (inactive); in the experiment on HCC 2998 it was 18.7 µM (inactive); with HCT-15, 13 µM. The GI50 with HOP-92 is 13.5 µM (inactive); in the experiment with Hs-578T it was 16.4 µM (inactive); with LOX IMVI, 12.6 µM (inactive); in the experiment with MDA-MB-435, 12.2 µM (inactive); in the experiment on NCI-H23 it was 21.1 µM (inactive); in the experiment with OVCAR-4, 21.9 µM (inactive). For the same compound, the GI50 is 60.1 µM (inactive) with OVCAR-5; 25.8 µM (inactive) in the experiment on SF-295; 15.9 µM (inactive) with SK-MEL-2; 17.5 µM (inactive) in the experiment on SK-MEL-5; 22.5 µM (inactive) in the experiment on SNB-75; 22.6 µM (inactive) with TK-10. The GI50 in the experiment on U-251 is 12.6 µM (inactive).

For `C=C1CC(c2ccc(OCCCN3C(=O)c4ccccc4C3=O)c(OC)c2)OC1=O` (centres undefined), the GI50 in the experiment with A498 is 1.77 µM (inactive); in the experiment with A549, 13.6 µM (inactive); with ACHN it was 6.25 µM (inactive); with EKVX it was 11 µM (inactive); in the experiment with HCC 2998, 12 µM (inactive); with HCT-15, 2.71 µM. The GI50 was 1.62 µM (inactive) in the experiment with HOP-92; 6.17 µM (inactive) with Hs-578T; 1.74 µM (inactive) with LOX IMVI; 2.04 µM (inactive) in the experiment with MDA-MB-435; 4.82 µM (inactive) in the experiment on NCI-H23; 1.06 µM (active) in the experiment with OVCAR-4. Besides, the GI50 with OVCAR-5 was 13.7 µM (inactive); in the experiment on SF-295, 11.2 µM (inactive); in the experiment with SK-MEL-2, 4.7 µM (inactive); in the experiment on SK-MEL-5 it was 11.1 µM (inactive); in the experiment on SNB-75, 0.382 µM (active); in the experiment on TK-10, 2.39 µM (inactive). Besides, the GI50 in the experiment with U-251 is 7.98 µM (inactive).

For the compound `COc1cc2ncnc(Nc3cccc(Br)c3)c2cc1OC`, the GI50 with A498 was 3.12 µM (inactive); with A549, 7.6 µM (inactive); with ACHN it was 0.06 µM (active); in the experiment on EKVX, 0.316 µM (active); in the experiment with HCC 2998, 3.26 µM (inactive); with HCT-15, 6.56 µM. In addition, the GI50 is 3.97 µM (inactive) with HOP-92; 4.44 µM (inactive) in the experiment on Hs-578T; 3.1 µM (inactive) in the experiment with LOX IMVI; 7.48 µM (inactive) in the experiment with MDA-MB-435; 12.5 µM (inactive) in the experiment on NCI-H23; 4.07 µM (inactive) in the experiment on OVCAR-4. Moreover, the GI50 was 8.13 µM (inactive) in the experiment on OVCAR-5; 3.17 µM (inactive) in the experiment with SF-295; 3.14 µM (inactive) with SK-MEL-2; 2.18 µM (inactive) in the experiment with SK-MEL-5; 3.05 µM (inactive) with SNB-75; 0.653 µM (active) in the experiment with TK-10. The GI50 in the experiment on U-251 is 7.06 µM (inactive).

As to `CCCCI(O)OS(=O)(=O)c1ccc(C)cc1`, the GI50 was > 100 µM (inactive) in the experiment with A498; 66.2 µM (inactive) with A549; > 100 µM (inactive) in the experiment on ACHN; 38 µM (inactive) with EKVX; > 100 µM (inactive) with HCC 2998; greater than 100 µM in the experiment with HCT-15. Besides, the GI50 in the experiment on HOP-92 is > 100 µM (inactive); in the experiment with Hs-578T, > 100 µM (inactive); in the experiment on LOX IMVI, 13.9 µM (inactive); in the experiment with MDA-MB-435, > 100 µM (inactive); with NCI-H23, > 100 µM (inactive); in the experiment with OVCAR-4, > 100 µM (inactive). The GI50 in the experiment on OVCAR-5 is > 100 µM (inactive); in the experiment with SF-295 it was > 100 µM (inactive); in the experiment on SK-MEL-2 it was > 100 µM (inactive); in the experiment with SK-MEL-5 it was > 100 µM (inactive); in the experiment with SNB-75 it was 73.5 µM (inactive); in the experiment on TK-10 it was > 100 µM (inactive). Moreover, the GI50 in the experiment on U-251 was > 100 µM (inactive).

As to `COc1cc(C2c3cc4c(c(O)c3C(=O)C3CCC(=O)N32)OCO4)cc(OC)c1OC` (centres undefined), the GI50 with A498 is 39.9 µM (inactive); in the experiment on A549, 18.2 µM (inactive); in the experiment on ACHN, 75 µM (inactive); in the experiment with EKVX, > 100 µM (inactive); with HCC 2998, 32 µM (inactive); in the experiment with HCT-15, 48.8 µM. Besides, the GI50 was 34.4 µM (inactive) in the experiment with HOP-92; 37.7 µM (inactive) in the experiment on Hs-578T; 52.5 µM (inactive) in the experiment on LOX IMVI; 18.2 µM (inactive) with MDA-MB-435; > 100 µM (inactive) with NCI-H23; > 100 µM (inactive) in the experiment on OVCAR-4. For the same compound, the GI50 was > 100 µM (inactive) in the experiment on OVCAR-5; 36.6 µM (inactive) with SF-295; 79.8 µM (inactive) in the experiment with SK-MEL-2; 23.9 µM (inactive) with SK-MEL-5; 30 µM (inactive) in the experiment on SNB-75; 67.5 µM (inactive) in the experiment on TK-10. The GI50 with U-251 is > 100 µM (inactive).
